Measurements: article PMC12731105, “Design and Synthesis of New Quinoxaline Analogs to Regenerate Sensory Auditory Hair Cells” (Cells, 2025)
≈ marks a conversion by molar mass, not a printed value.

Experiments:
[1] = Plasma protein binding (rapid equilibrium dialysis); assay type: in vitro ADME, mice; settings: mouse, plasma, mice plasma protein binding (footnote); RED, 10 µg/mL, four hours, 37 °C; read-out: PPB (% Bound) (converted)
mouse organ of Corti = assay: TUNEL assay in the mouse organ of Corti; assay type: in vivo; settings: mice, any treatment group (24, 48, 72 h)
Method: (§1) C57BL/6J male and female mice between postnatal day 24 and 30 P-24-30) were randomized into control and experimental groups (9 mice per group per compound), with each experimental group receiving a single intraperitoneal (IP) injection of Qx-294 or Qx-301 at a dose of 300 mg/kg body weight, dissolved in dimethyl sulfoxide (DMSO). Controls consisted of treatment with DMSO alone (vehicle). A total of 90 adult wild-type C57/BL6 mice were used in this study. Based on the analysis, animals were examined at various times following treatment as described below.
In vitro cell proliferation effects of all ten initial compounds (Figure 1A,B) were tested on HEI-OC1, Neuro-2A and HT-1080 cells by TACS® 3-(4,5-dimethylthiazol-2-yl)-2,5-diphenyltetrazolium bromide (MTT) Cell Proliferation Assay (R&D Systems, Minneapolis, MN, USA, 4890-025-K), following the manufacturer’s protocol. Absorbance was measured with SpectraMax® M Series Multi-Mode Microplate Reader with Soft Max Pro 7.2 GxP Software (Molecular Devices, Sunnyvale, CA, USA), and the average OD in control cells was taken as 100% of viability. Upon selecting the most viable compounds (Qx-294 and Qx-301), we proceeded with in vivo experiments. […]

mouse auditory function = assay: Distortion product otoacoustic emissions (DPOAE); assay type: in vivo, mice (Mus musculus); settings: for Frequencies at which DPOAE threshold improvement was statistically significant: 72 h group, p < 0.05; for Frequencies at which DPOAE threshold improvement was statistically significant / DPOAE thresholds at higher frequencies vs control: Two-Way ANOVA; for DPOAE vs control, 24 h treatment / DPOAE thresholds at higher frequencies vs control: C57BL/6J mice; for DPOAE vs control, 24 h treatment: 24 h post-treatment; for DPOAE thresholds at higher frequencies vs control: p < 0.01
Method: as §1
Mice from all groups underwent auditory brainstem response (ABR) and distortion product otoacoustic emissions (DPOAEs) tests before the initiation of treatment with either compounds or vehicle, and at 24, 48, and 72 h post-treatment, as described below. After audiometric testing, pre-treatment mice were placed in a warm and clean cage and monitored until they were awake and able to remain upright in a sternal position. Alternatively, post-treatment mice had their cochleae processed for histological examination.
Methods for recording distortion product otoacoustic emissions (DPOAEs) were similar to those previously described. Stimuli for DPOAEs were generated and controlled with modules from TDT. Pure tone frequencies (f1, f2, f2/f1 ratio ¼ 1.25), at equal levels (L1 ¼ L2 ¼ 60 dBSPL), 150 ms duration, were generated with independent sources (TDT RX6 processor) and routed through separate drivers to mix acoustically in the ear canal (via plastic tubing placed securely at the external acoustic meatus). Stimuli were calibrated in a 0.1 mL coupler, which simulates the volume of the mouse ear canal. Stimulus frequencies for the primaries are such that geometric mean (GM ¼ (f1 x f2)0.5) frequencies ranged from 6.0 to 48.5 kHz (at least eight frequencies per octave). Ear canal sound pressure levels were recorded using a low-noise probe microphone (Etymotic ER 10Bþ). The microphone output was amplified and fed into the TDT RX6 processor for digital sampling, spectral averaging, and fast Fourier transform (FFT) processing. The amplitude of f1, f2, and the cubic difference distortion product (2f1–f2) were measured from the FFT waveform. The noise floor was measured from the amplitudes in the fifth and twelfth frequency bins above and below (±60 and 120, resp.) the 2f1-f2 component. For statistical comparison (Two-Way ANOVA), the mean DPOAE amplitude across all tested primary frequency pairs was calculated and compared between treatment and control groups.

Kinetic solubility assay = assay type: physicochemical; settings: for solubility at 6 h: physiological buffer, pH 7.4, kinetic solubility, physiological buffer pH 7.4, room temperature, six hours
Method: A stock solution of each active compound in DMSO (10 mg/mL) was prepared and diluted into physiological buffer (pH 7.4) to a concentration of 100 µg/mL, and the mixture was left at room temperature for six hours. After six hours, the sample was centrifuged, and the supernatant was diluted with a methanol-water solution containing an internal standard (IS). The calibration curve was established using seven-point standards prepared by serial dilution in a range that the unknown sample signal would likely fall in and precisely simulating the sample preparation process. The standards and samples were quantified using LC-MS/MS, and unknown concentrations were back-calculated from the calibration curve.

[2] = system: zebrafish neuromast cells; assay: TUNEL assay in zebrafish neuromasts; assay type: in vivo, zebrafish (Danio rerio); settings: 6 h incubation, any concentration tested
Method: Absorbance was measured with SpectraMax® M Series Multi-Mode Microplate Reader with Soft Max Pro 7.2 GxP Software (Molecular Devices, Sunnyvale, CA, USA), and the average OD in control cells was taken as 100% of viability. […] Mice treatment followed the same procedures as described in [18]. Following treatment, animals or tissue samples were incubated in Click-it EdU or Click-it Plus TUNEL kits (Thermo Scientific, Waltham, MA, USA), following the manufacturer’s instructions to label proliferating and apoptotic cells, respectively.

Compound	fraction unbound at 4 h, 10 µg/mL [1]	Apoptosis (TUNEL) in the OC (mouse organ of Corti)	Frequencies at which DPOAE threshold improvement was statistically significant (mouse auditory function)	DPOAE vs control, 24 h treatment (mouse auditory function)	DPOAE thresholds at higher frequencies vs control (mouse auditory function)	Aqueous solubility (Kinetic solubility assay)	solubility at 6 h (Kinetic solubility assay)	Apoptosis (TUNEL) in neuromasts [2]
c1ccc2nc(N3CCCC3)cnc2c1 [Qx-301, 2-(pyrrolidine)-quinoxaline]	~0.68	no signs of apoptosis	above 22.6 kHz	no statistically significant differences	significantly lower than those of the control group	low aqueous solubility	0.365 ± 0.028 µg/mL (≈ 1.83 µM)	no signs of apoptosis
c1ccc2nc(N3CCOCC3)cnc2c1 [Qx-294, 2-(morpholine)-quinoxaline]	0.115	no signs of apoptosis	above 16 kHz	no statistically significant differences	significantly lower than those of the control group	low aqueous solubility	~0.551 µg/mL (≈ 2.56 µM)	no signs of apoptosis
